Results as given in patent US5672715A, “Herbicidal substituted 3-aryl-pyrazoles” (Monsanto Company, priority 1995, dated 1997).
Several values for one entry are separate records, joined by “and”; a condition that tells them apart may be missing. Equal entries are not always repeated.

Assays:
Format in all cases: in vivo
Blackgrass [1] = experiment: post-emergence herbicide test; details: Alopecurus myosuroides, post-emergence, 0.25 lb/A; read-out: % plant inhibition
From the text: (§1) Topsoil was placed in aluminum pans having holes in the bottom and compacted to a depth of 1.3 to 1.6 cm from the top of the pan. A predetermined number of seeds of each of several dicotyledonous and monocotyledonous annual plant species and/or vegetative propagules for the perennial plant species were placed on the soil and pressed into the soil surface. The seeds and/or vegetative propagules were covered with soil and leveled. The pans were then placed on a bench in the greenhouse and watered either from overheard irrigation or by subirrigation as needed. After the plants reach the desired age (two to three weeks), each pan, is removed individually to a spraying chamber and sprayed by means of an atomizer, operating at a spray pressure of 170.3 kPa […] at the application rates noted. In the spray solution was an amount of an emulsifying agent mixture to give a spray solution or suspension which contains about 0.4% by volume of the emulsifier. The spray solution or suspension contained a sufficient amount of the candidate chemical in order to give application rates of the active ingredient corresponding to those shown in Tables 4 and 5, while applying a total amount of solution or suspension equivalent to 1870 L/Ha (200 gallons/acre). […] The post-emergent herbicidal activity shown in these tables is the percent inhibition of each plant species. Testing with warm season and cool season plants is shown in tables 4a-4d and […], respectively.

Giant Foxtail [2] = experiment: post-emergence herbicide test; details: Setaria faberi, post-emergence, 0.25 lb/A; read-out: % plant inhibition
From the text: as §1

Barnyardgrass [3] = experiment: post-emergence herbicide test; details: Echinochloa crus-galli, post-emergence, 0.25 lb/A; read-out: % plant inhibition
From the text: as §1

Wild Oats [4] = experiment: post-emergence herbicide test; details: Avena fatua, post-emergence, 0.25 lb/A; read-out: % plant inhibition
From the text: as §1

Seedling Johnsongrass [5] = experiment: post-emergence herbicide test; details: Sorghum halepense, post-emergence, 0.25 lb/A; read-out: % plant inhibition
From the text: as §1

Wheat [6] = experiment: post-emergence herbicide test; details: Triticum aestivum, post-emergence, 0.25 lb/A; read-out: % plant inhibition
From the text: as §1

Common Chickweed [7] = experiment: post-emergence herbicide test; details: post-emergence, 0.25 lb/A; read-out: % plant inhibition
From the text: as §1

Morning Glory = experiment: post-emergence herbicide test; details: Ipomoea, post-emergence, 0.25 lb/A; read-out: % plant inhibition
From the text: as §1

Bedstraw Catchweed [8] = experiment: post-emergence herbicide test; details: Galium aparine, post-emergence, 0.25 lb/A; read-out: % plant inhibition
From the text: as §1

Birdseye Speedwell [9] = experiment: post-emergence herbicide test; details: post-emergence, 0.25 lb/A; read-out: % plant inhibition
From the text: as §1

Corn [10] = experiment: post-emergence herbicide test; details: Zea mays, post-emergence, 0.25 lb/A; read-out: % plant inhibition
From the text: as §1

Green Foxtail [11] = experiment: post-emergence herbicide test; details: Setaria viridis, post-emergence, 0.25 lb/A; read-out: % plant inhibition
From the text: as §1

Rape [12] = experiment: post-emergence herbicide test; details: post-emergence, 0.25 lb/A; read-out: % plant inhibition
From the text: as §1

Soybean = experiment: post-emergence herbicide test; details: Glycine max, post-emergence, 0.25 lb/A; read-out: % plant inhibition
From the text: as §1

Velvetleaf [13] = experiment: post-emergence herbicide test; details: Abutilon theophrasti, post-emergence, 0.25 lb/A; read-out: % plant inhibition
From the text: as §1

Downy Brome [14] = experiment: post-emergence herbicide test; details: Bromus tectorum, post-emergence, 0.25 lb/A; read-out: % plant inhibition
From the text: as §1

Cocklebur [15] = experiment: post-emergence herbicide test; details: Xanthium strumarium, post-emergence, 0.25 lb/A; read-out: % plant inhibition
From the text: as §1

Blackgrass [16] = experiment: pre-emergence herbicide test; details: Alopecurus myosuroides, pre-emergence, 0.25 lb/A; read-out: % plant inhibition
Description: (§2) Topsoil was placed in an aluminum pan and compacted to a depth of 1.3 to 1.6 cm from the top of the pan. On the top of the soil was placed a predetermined number of seeds of each of several monocotyledonous and dicotyledonous annual plant species and/or vegetative propagules of various perennial plant species. The pan was then level filled with a cover layer of topsoil to which was added a known amount of active ingredient either prior to or after application of the cover layer. The active ingredient was dissolved or suspended in an organic solvent, e.g., acetone, or water as carrier for application to the cover layer. The pans were moved to a greenhouse bench where they were thereafter watered from below as needed to give adequate moisture for germination and growth. In some cases, an initial overhead irrigation of 1/4 inch of water was applied immediately after treatment.
(§3) Approximately 14 days after seeding and treating, the pans were observed and the results (% inhibition) were recorded.
(§4) The tables below summarize the results of the pre-emergence herbicidal activity tests of compounds of this invention tested with warm season plants (Tables 2a-2d) and cool season plants (Tables 3a and 3b). The herbicidal rating shown in these tables is the percent inhibition of each plant species. The plant species usually regarded as weeds are identified in the tables by single letter headings and crop species identified by two letter headings both headings being above the columns in accordance with the following legend: […]

Giant Foxtail [17] = experiment: pre-emergence herbicide test; details: 0.25 lb/A; for inhibition at 280.212 g/ha: Setaria faberi, pre-emergence, read-out: % plant inhibition
Description: as §2, §3, §4

Barnyardgrass [18] = experiment: pre-emergence herbicide test; details: 0.25 lb/A; for inhibition at 280.212 g/ha: Echinochloa crus-galli, pre-emergence, read-out: % plant inhibition
Description: as §2, §3, §4

Wild Oats [19] = experiment: pre-emergence herbicide test; details: Avena fatua, pre-emergence, 0.25 lb/A; read-out: % plant inhibition
Description: as §2, §3, §4

Seedling Johnsongrass [20] = experiment: pre-emergence herbicide test; details: 0.25 lb/A; for inhibition at 280.212 g/ha: Sorghum halepense, pre-emergence, read-out: % plant inhibition
Description: as §2, §3, §4

Wheat [21] = experiment: pre-emergence herbicide test; details: Triticum aestivum, pre-emergence, 0.25 lb/A; read-out: % plant inhibition
Description: as §2, §3, §4

Common Chickweed [22] = experiment: pre-emergence herbicide test; details: pre-emergence, 0.25 lb/A; read-out: % plant inhibition
Description: as §2, §3, §4

Bedstraw Catchweed [23] = experiment: pre-emergence herbicide test; details: Galium aparine, pre-emergence, 0.25 lb/A; read-out: % plant inhibition
Description: as §2, §3, §4

Birdseye Speedwell [24] = experiment: pre-emergence herbicide test; details: pre-emergence, 0.25 lb/A; read-out: % plant inhibition
Description: as §2, §3, §4

Corn [25] = experiment: pre-emergence herbicide test; details: 0.25 lb/A; for inhibition at 280.212 g/ha: Zea mays, pre-emergence, read-out: % plant inhibition
Description: as §2, §3, §4

Green Foxtail [26] = experiment: pre-emergence herbicide test; details: Setaria viridis, pre-emergence; 0.25 lb/A; read-out: % plant inhibition
Description: as §2, §3, §4

Rape [27] = experiment: pre-emergence herbicide test; details: pre-emergence, 0.25 lb/A; read-out: % plant inhibition
Description: as §2, §3, §4

Velvetleaf [28] = experiment: pre-emergence herbicide test; details: 0.25 lb/A; for inhibition at 280.212 g/ha: Abutilon theophrasti, pre-emergence, read-out: % plant inhibition
Description: as §2, §3, §4

Downy Brome [29] = experiment: pre-emergence herbicide test; details: Bromus tectorum, pre-emergence, 0.25 lb/A; read-out: % plant inhibition
Description: as §2, §3, §4

Cocklebur [30] = experiment: pre-emergence herbicide test; details: 0.25 lb/A
Description: as §2, §3, §4

Row | Structure (SMILES) | inhibition at 280.212 g/ha (Blackgrass [1]) [%] | inhibition at 280.212 g/ha (Giant Foxtail [2]) [%] | inhibition at 280.212 g/ha (Barnyardgrass [3]) [%] | inhibition at 280.212 g/ha (Wild Oats [4]) [%] | inhibition at 280.212 g/ha (Seedling Johnsongrass [5]) [%] | inhibition at 280.212 g/ha (Wheat [6]) [%] | inhibition at 280.212 g/ha (Common Chickweed [7]) [%] | inhibition at 280.212 g/ha (Morning Glory) [%] | inhibition at 280.212 g/ha (Bedstraw Catchweed [8]) [%] | inhibition at 280.212 g/ha (Birdseye Speedwell [9]) [%] | inhibition at 280.212 g/ha (Corn [10]) [%] | inhibition at 280.212 g/ha (Green Foxtail [11]) [%] | inhibition at 280.212 g/ha (Rape [12]) [%] | inhibition at 280.212 g/ha (Soybean) [%] | inhibition at 280.212 g/ha (Velvetleaf [13]) [%] | inhibition at 280.212 g/ha (Downy Brome [14]) [%] | inhibition at 280.212 g/ha (Cocklebur [15]) [%] | inhibition at 280.212 g/ha (Blackgrass [16]) [%] | % plant inhibition (Giant Foxtail [17]) | inhibition at 280.212 g/ha (Giant Foxtail [17]) [%] | further results
1 | COC(=O)c1cc(-c2nn(C)c(C(F)(F)F)c2C)c(F)cc1Cl [Compound 18] | 20 | 5 | 5 | 20 | 35 | 7 | 35 | 50 | 65 | 60 | 15 | 20 | 15 | 40 | 90 | 25 | 65 | 95 | 100% and 99% | 95 | % plant inhibition (Barnyardgrass [18]): 99% and 93%; inhibition at 280.212 g/ha (Barnyardgrass [18]): 95%; inhibition at 280.212 g/ha (Wild Oats [19]): 80%; % plant inhibition (Seedling Johnsongrass [20]): 95% and 85%; inhibition at 280.212 g/ha (Seedling Johnsongrass [20]): 90%; inhibition at 280.212 g/ha (Wheat [21]): 0%; inhibition at 280.212 g/ha (Common Chickweed [22]): 100%; inhibition at 280.212 g/ha (Bedstraw Catchweed [23]): 100%; inhibition at 280.212 g/ha (Birdseye Speedwell [24]): 100%; inhibition at 280.212 g/ha (Corn [25]): 15%; inhibition at 280.212 g/ha (Green Foxtail [26]): 100%; inhibition at 280.212 g/ha (Rape [27]): 100%; % plant inhibition (Velvetleaf [28]): 100%; inhibition at 280.212 g/ha (Velvetleaf [28]): 98%; inhibition at 280.212 g/ha (Downy Brome [29]): 85%
2 | CCCOC(=O)c1cc(-c2nn(C)c(C(F)(F)F)c2C)c(F)cc1Cl [Compound 19] | 20 | 65 | 65 | 20 | 50 | 10 | 50 | 35 | 60 | 55 | 20 | 20 | 15 | 50 | 90 | 25 | 75 | 95 | 100% | 99 | % plant inhibition (Barnyardgrass [18]): 95%; inhibition at 280.212 g/ha (Barnyardgrass [18]): 98%; inhibition at 280.212 g/ha (Wild Oats [19]): 75%; % plant inhibition (Seedling Johnsongrass [20]): 85%; inhibition at 280.212 g/ha (Seedling Johnsongrass [20]): 95%; inhibition at 280.212 g/ha (Wheat [21]): 0%; inhibition at 280.212 g/ha (Common Chickweed [22]): 100%; inhibition at 280.212 g/ha (Bedstraw Catchweed [23]): 80%; inhibition at 280.212 g/ha (Birdseye Speedwell [24]): 100%; % plant inhibition (Corn [25]): 28%; inhibition at 280.212 g/ha (Corn [25]): 25%; inhibition at 280.212 g/ha (Green Foxtail [26]): 100%; inhibition at 280.212 g/ha (Rape [27]): 50%; % plant inhibition (Velvetleaf [28]): 98%; inhibition at 280.212 g/ha (Velvetleaf [28]): 90%; inhibition at 280.212 g/ha (Downy Brome [29]): 40%; % plant inhibition (Cocklebur [30]): 70%; inhibition at 280.212 g/ha (Cocklebur [30]; Xanthium strumarium, pre-emergence, read-out: % plant inhibition): 60%
